Results as given in US10494341B2, “Compound containing indoleacetic acid core structure and use thereof” (Beijing An Jian Xi Bio-Medical Technology Co., Ltd., priority 2015, dated 2019).
Values belong to the compound of their own block, whether it stands above or below them.

Legend:
COX-1 in gastric mucosa = target: T1, COX-1 in gastric mucosa (Rattus norvegicus, UniProt Q63921); assay: COX-1 activity assay, gastric mucosa (thromboxane B2 EIA) after oral dosing of A23187-treated rats; assay type: in vivo; settings: for reduction of inhibition against COX-1 in gastric mucosal tissue compared with intermediate I: gavage 1, 3, 9 mg/kg/day, intermediate I 0.5 mg/kg, 6 h after dosing; for effect of inhibiting COX-1 in gastric mucosa: gavage, A23187-activated
T1 construct: from tissue; host or cells: rat gastric mucosa (in vivo dosing, tissue homogenate supernatant)
T1 sequence (Q63921 27-602): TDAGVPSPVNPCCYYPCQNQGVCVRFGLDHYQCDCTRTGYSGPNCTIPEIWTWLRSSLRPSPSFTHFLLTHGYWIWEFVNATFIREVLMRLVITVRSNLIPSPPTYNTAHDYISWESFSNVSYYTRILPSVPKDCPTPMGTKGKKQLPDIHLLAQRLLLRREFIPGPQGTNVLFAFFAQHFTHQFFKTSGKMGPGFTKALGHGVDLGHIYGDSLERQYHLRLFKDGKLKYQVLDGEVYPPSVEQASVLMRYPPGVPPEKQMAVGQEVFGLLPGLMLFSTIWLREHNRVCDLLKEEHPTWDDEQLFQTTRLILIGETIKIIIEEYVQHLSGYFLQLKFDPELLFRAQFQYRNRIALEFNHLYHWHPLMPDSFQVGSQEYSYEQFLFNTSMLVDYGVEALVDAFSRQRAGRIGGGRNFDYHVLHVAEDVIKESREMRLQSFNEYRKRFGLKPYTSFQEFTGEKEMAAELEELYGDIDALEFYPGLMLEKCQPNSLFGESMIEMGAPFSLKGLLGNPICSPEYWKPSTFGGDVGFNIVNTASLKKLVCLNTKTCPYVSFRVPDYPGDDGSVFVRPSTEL
Description: (1) COX-1 activity assay: 2 hours after intraperitoneal injection of calcium ionophore A23187 (50 mg/kg) to rats, each of the compounds a, b, c, d, e and f was orally administered (gavage) to three rats at a dose of 1, 3 and 9 mg/kg/day, respectively; the intermediate I was orally administered as a control drug to three rats at a dose of 0.5 mg/kg; and additional three rats were only administered with COX-1 activator, the calcium ionophore A23187, and were not administered with the compounds of the present invention. 6 hours after the compound of the present invention was administered, the animals were sacrificed, gastric mucosal tissue and myocardial tissue were collected, homogenized, and subjected to high-speed centrifugation (12,000 rpm), and the supernatant was collected for use. The amount of thromboxane B2 was measured using an enzyme-linked immunosorbent assay (EIA) kit (operated in accordance with the instructions provided by the manufacturer) and converted to COX1 activity.
(§1) The percentage inhibition rate against COX-1 (FIG. 1a—gastric mucosa, FIG. 1b—myocardium) and COX-2 (FIG. 1c) and the IC50 values (Table 1a—gastric mucosa; Table 1b—myocardium) of each tested pharmaceutical compound were calculated from the above data.

COX-2 = target: T2, COX-2 (Rattus norvegicus, UniProt P35355); assay: COX-2 activity assay (PGE2 in gastric mucosa, EIA) in LPS-treated rats; assay type: in vivo; settings: gavage, LPS 2.5 mg/kg-activated
T2 construct: from tissue; host or cells: rat gastric mucosa (LPS-treated rats, in vivo dosing)
T2 sequence (P35355 18-604): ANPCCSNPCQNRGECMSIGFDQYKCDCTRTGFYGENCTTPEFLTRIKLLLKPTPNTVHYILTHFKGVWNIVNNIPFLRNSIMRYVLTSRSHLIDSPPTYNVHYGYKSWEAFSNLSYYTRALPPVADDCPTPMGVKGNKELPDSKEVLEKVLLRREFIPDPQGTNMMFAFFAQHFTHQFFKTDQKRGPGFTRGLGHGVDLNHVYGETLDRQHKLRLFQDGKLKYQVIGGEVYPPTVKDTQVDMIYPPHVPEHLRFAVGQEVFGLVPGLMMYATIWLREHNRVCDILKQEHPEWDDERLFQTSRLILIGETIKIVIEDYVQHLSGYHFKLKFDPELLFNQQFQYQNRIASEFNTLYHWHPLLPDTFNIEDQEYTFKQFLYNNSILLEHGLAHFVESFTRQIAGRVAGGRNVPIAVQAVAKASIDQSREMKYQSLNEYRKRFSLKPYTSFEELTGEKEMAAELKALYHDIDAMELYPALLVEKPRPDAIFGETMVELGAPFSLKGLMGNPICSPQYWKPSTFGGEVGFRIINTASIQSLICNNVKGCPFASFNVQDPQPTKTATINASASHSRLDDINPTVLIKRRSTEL
Description: (2) COX-2 activity assay: The assay was similar to that of COX-1, except that LPS was injected intraperitoneally to rats at a dose of 2.5 mg/kg to activate COX-2 in this experiment. After administration, the content of PGE2 in gastric mucosa was measured using an enzyme-linked immunosorbent assay (EIA) kit (operated according to the instructions provided by the manufacturer) and converted to COX2 activity.
as §1

mice (C57BL/6J) = assay: Survival rate of mice irradiated by γ-rays; assay type: in vivo; settings: 30th day after 8.75 Gy γ-rays, 16 mice per group; for number of survived mice: intermediates each 3 mg/kg/day gavage; for survival rate: compounds 6 mg/kg/day gavage, amifostine 400 mg/kg/day i.p.
Description: In this experiment, 10-week-old male mice (C57BL/6J) weighing about 20 g were used as subjects, and 16 mice were taken as a group. The mice were divided into the following groups: 1. no γ-ray+no drug; 2. γ-ray+no drug; 3. γ-ray+amifostine; 4. γ-ray+intermediate I+intermediate II; 5. γ-ray+compound a; 6. γ-ray+compound b; and 7. γ-ray+compound d. Firstly, each group of mice was administered with a protective agent, and the specific amounts were as follows: compound a, b and d: 6 mg/kg/day (8.1 μM), amifostine: 400 mg/kg/day (1.5 mM), intermediate I+Intermediate II: each 3 mg/kg/day (8.1 μM). Except that amifostine was intraperitoneally injected (30 minutes before irradiation, amifostine was administered), the other protective agents were administered by gavage. 12 hours after administration, systemic irradiation was performed using cobalt 60γ-rays at a dose of 8.75Gy and a dose rate of 0.35 Gy/min for 25 minutes, with the radiation source 80 cm away from the mice. The mice were irradiated once, and continuously administered with drugs once daily for 10 days after irradiation. The number of survival mice was recorded. The percentage obtained by dividing the number of survival mice by the total number of mice in the experimental group (16 mice) is survival rate of mice, and the results are summarized in FIG. 7. […] It is noteworthy that in the experimental group using intermediate I+intermediate II, only one mouse is survived.

peripheral leukocytes = assay: Protection against blood cell (leukocyte) damage induced by paclitaxel; assay type: in vivo; settings: mice, paclitaxel; amifostine 400 mg/kg/day i.p.
Description: In this experiment, 10-week-old male mice (C57BL/6J) weighing about 20 grams were used as subjects, and 6 mice were taken as a group. The mice were divided into 5 groups: 1. Paclitaxel; 2. Paclitaxel+amifostine; 3. Paclitaxel+intermediate I+intermediate II; 4. paclitaxel+compound a; and 5. paclitaxel+compound b. Firstly, each group of mice was administered with a protective agent, and the specific amounts were as follows: compounds a and b: each 6 mg/kg/day (8.1 μM), amifostine: 400 mg/kg/day (1.5 mM), intermediate I+Intermediate II: each 3 mg/kg/day (8.1 μM). Except that amifostine was intraperitoneally injected (30 minutes before administering Paclitaxel, amifostine was administered), the other protective agents were administered by gavage (once a day, 25 times continuously). 12 hours after the compound a and the corresponding protective agents were administered, Paclitaxel was intraperitoneally injected (10 mg/kg/day, once every 3 days, 9 times continuously), and 7, 14, 21, 28 days later, blood of mice was drawn respectively. The number of leukocytes was analyzed.

[1] = test system: colon cancer cells (SW480); settings: SW480 tumors in nude mice; for effect on tumor / on sensitivity of tumor to doxorubicin: doxorubicin 2.5 mg/kg i.p. every 2 days for 5 weeks, agents daily; for death of animals during treatment: doxorubicin 2.5 mg/kg i.p., 6 mice per group
Description: The experiment was carried out using compound a in this example. Under sterile conditions, a suspension of colon cancer cells (SW480) in logarithmic growth phase (cell concentration was adjusted to 1×10^7/mL with physiological saline) was inoculated subcutaneously to 5 to 6 weeks old balb/c female nude mice on the right rear back, and each nude mice was inoculated at an amount of 0.3 ml, i.e. the number of cells contained was 3×10^6 per each mouse. 10 days later, subcutaneous transplanted tumor of 100-250 mm^3 appeared. The nude mice with tumor were randomly divided into several groups, each containing 6 mice: (1) control group; (2) doxorubicin group; (3) doxorubicin+amifostine; (4) doxorubicin+Celecoxib+intermediate II; (5) doxorubicin+intermediate I+intermediate II; (6) doxorubicin+low-dose compound a (6 mg/kg/day); (7) doxorubicin+high-dose compound a (15 mg/kg/day). Firstly, the following compounds were administered to each group of nude mice with tumor according to the following doses: intermediate I and intermediate II (3 mg/kg/day respectively), amifostine (400 mg/kg/day), Celecoxib (6 mg/kg/day). Except that amifostine was subcutaneously injected (30 minutes before irradiation), the other protective agents were administered by gavage. The above drugs were administered every day for 5 weeks continuously. 12 hours after the administration, doxorubicin (2.5 mg/kg) was injected intraperitoneally, and it was administered once every 2 days for 5 weeks. During the dosing period, the body weight of the nude mice was measured every two days with a precision electronic balance. The growth of the tumor and whether or not red and swelling and rupture occur were observed every day after inoculation. After tumor formation, the surface morphology and activity of the transplanted tumor were examined, and the longest diameter (a) and the shortest diameter (b) of the tumor nodules were measured every 3 days with a vernier caliper. […] 21 days after administration of doxorubicin, the tail vein blood of mice was collected to perform leukocyte count and blood biochemical index analysis. The tumor tissue and normal peripheral tissues were taken on the last day of treatment, and the content of the intermediate I therein was measured by HPLC (FIG. 9a). At the same time, paraffin sections were made, the occurrence of apoptosis was detected by terminal labeling (FIG. 9b), and the relative survival percentages of normal tissue and tumor tissue were calculated (the results are summarized in FIG. 9b).

A549 cells = assay: A549 transplanted tumors in nude mice, compound used alone; assay type: in vivo; settings: A549; cisplatin 5 mg/kg/week i.p.; compound a 5 and 25 mg/kg/day; intermediates 12.5 mg/kg/day each
Description: Except cisplatin (intraperitoneal injection, once a week), all compounds were administered by gavage, once a day for 5 weeks continuously.

HT-29 cells = assay: HT-29 transplanted tumors in nude mice, compound a in combination with doxorubicin; assay type: in vivo; settings: Doxorubicin 2 mg/kg/week i.p. or compound a 3 mg/kg/day gavage, 4 weeks
Description: Compound a was administered by gavage once a day for 4 weeks continuously; Doxorubicin was injected intraperitoneally once a week for 4 weeks. Body weight and tumor volume of animals were measured and calculated according to Example 9.

SW480 cells = assay: Measurement of cellular uptake of compounds (HPLC of intermediate I); assay type: in vitro ADME; settings: 10 μM
gastric mucosa = assay: Ulcer induction in rats after gavage (lesions of the gastric mucosa); assay type: in vivo

reduction of inhibition against COX-1 in gastric mucosal tissue compared with intermediate I (COX-1 in gastric mucosa): ~700 fold
inhibition against COX-2 (COX-2): weaker than those of compounds a and b
Compound: COC1=C(OC)C(=O)C(COC(=O)Cc2c(C)n(C(=O)c3ccc(Cl)cc3)c3cc(OC)ccc23)=C(C)C1=O [compound f]
effect of inhibiting COX-1 in gastric mucosa (COX-1 in gastric mucosa): almost lose the effect of inhibiting COX-1 in gastric mucosa

reduction of inhibition against COX-1 in gastric mucosal tissue compared with intermediate I (COX-1 in gastric mucosa): ~700 fold
inhibition against COX-2 (COX-2): weaker than those of compounds a and b
Compound: COC1=C(OC)C(=O)C(CCCCCCCCCCOC(=O)CC2=C(C)C(=Cc3ccc([S+](C)[O-])cc3)c3cc(F)ccc32)=C(C)C1=O (stereo not shown) [compound c]
effect of inhibiting COX-1 in gastric mucosa (COX-1 in gastric mucosa): almost lose the effect of inhibiting COX-1 in gastric mucosa

Compound: NCCCNCCSP(=O)(O)O [amifostine, reference compound]
number of survived mice (mice (C57BL/6J)): 10 mice
survival rate (mice (C57BL/6J)): 62.5%
protective effect on leukocytes at the early stage of simulated chemotherapy (peripheral leukocytes): slight better than that of the compounds a and b
effect on tumor / on sensitivity of tumor to doxorubicin [1]: significantly interferes with the inhibitory effect of doxorubicin on the tumor
protection of normal tissue and cells from doxorubicin ([1]; with doxorubicin): effectively protects the normal tissue

Compound: N.N.[Cl][Pt][Cl] [cisplatin, reference compound]
inhibitory effect on the tumor (A549 cells): only mild inhibitory effect

Compound: COc1cccc2c1C(=O)c1c(O)c3c(c(O)c1C2=O)C[C@@](O)(C(=O)CO)C[C@@H]3O[C@H]1C[C@H](N)[C@H](O)[C@H](C)O1 [Doxorubicin]
effect on tumor / on sensitivity of tumor to doxorubicin [1]: mild inhibitory effect
death of animals during treatment [1]: three
inhibition of the tumor, administered alone (HT-29 cells): only slightly inhibited

Compound: COc1c(O)c(C)c(CCCCCCCCCCOC(=O)CC2=C(C)C(=Cc3ccc([S+](C)[O-])cc3)c3cc(F)ccc32)c(O)c1OC (stereo not shown) [compound d]
reduction of inhibition against COX-1 in gastric mucosal tissue compared with intermediate I (COX-1 in gastric mucosa): ~700 fold
effect of inhibiting COX-1 in gastric mucosa (COX-1 in gastric mucosa): almost lose the effect of inhibiting COX-1 in gastric mucosa
inhibition against COX-2 (COX-2): weaker than those of compounds a and b
number of survived mice (mice (C57BL/6J)): 11 mice
survival rate (mice (C57BL/6J)): 68.75%

Compound: COc1ccc2c(c1)c(CC(=O)O)c(C)n2C(=O)c1ccc(Cl)cc1 [intermediate I, reference compound]
uptake by cells (SW480 cells): difficult to be efficiently taken up by the cells
prevalence of ulcer (gastric mucosa; gavage three times, 10 μM): 0/6
prevalence of ulcer (gastric mucosa; gavage three times, 30 μM): 2/6
prevalence of ulcer (gastric mucosa; gavage three times, 90 μM): 6/6
Ulcer index (gastric mucosa; gavage three times, Dose 90 μM/kg, 12 hours after last gavage): 72.8 ± 6.82
ulcer at high concentration (gastric mucosa; gavage, high concentration (90 μM)): very serious ulcer
effect on tumor / on sensitivity of tumor to doxorubicin [1]: can also enhance the sensitivity of the tumor to Doxorubicin
death of animals during treatment [1]: die of gastrointestinal bleeding
